The record followed here is patent US6432943B1, “Method for treating sexual dysfunction” (Eli Lilly and Company, priority 1997, dated 2002).

Molecules are shown by their SMILES.

Data set [1] deals with rats. As to the kind of experiment: in vivo animal observation after overdose. Also noted: species or system rat.
The test system of data set [2] is muscarinic cholinergic receptor. To be noted: results of pharmacological studies.
In data set [3] the test system is clinical subjects. As to the kind of experiment: clinical observation of pupil response. The following applies: pupilary dialation was expected.
Data set [4] in a line: detection of radiolabelled compound in saliva. The format is in vivo. Here is the method:
For example, in the treatment of adult humans, dosages of from about 0.25 to 50 mg, preferably from 1 to 30 mg, and most preferably 1 to 20 mg per day may be used. A once a day dosage is normally sufficient, although divided doses may be administered. For treatment of cognitive dysfunction, a dose range of from 1 to 30 mg, preferably 1 to 20 mg per day is suitable.

Consider `Cc1cc2c(s1)Nc1ccccc1N=C2N1CCN(C)CC1`, for which the “observation in rats exposed to an overdose” value in data set [1] is “significant salivation”. Also, the “muscarinic cholinergic receptor activity” value in data set [2] is “has muscarinic cholinergic receptor activity”. In data set [3], the “pupil response in clinical subjects” value was “pupilary constriction”.
Turning to `Cc1cc2c(s1)Nc1ccccc1N=C2N1CCN(C)CC1` [2-methyl-4-(4-methyl-1-piperazinyl)-10H-thieno-[2,3-b][1,5]benzodiazepine], the detection in saliva result in data set [4] is recorded as “can be detected in the saliva”.
